From patent publication US11339203B2, “Antitumor peptide and use thereof” (TOAGOSEI CO., LTD., priority 2018, dated 2022) come the findings set out here.

Where two headings read alike, the source gives them in different places. Where no end group is shown, it is not given here.

Series [1] concerns human melanoma cell line (A2058). It counts as cell-based. Particulars: 48 h. How it is done:
CAKI2 cells were cultured and adjusted to cell count of about 5×10^3 cells per single well of 96-well plate. The amount of medium at this time was made to be 100 μL per well. Next, the 96-well plate was arranged in a CO2 incubator and incubated for about 1 day (21 hours to 24 hours) under conditions of 37° C. and 5% CO2. […] Cell viability (%) was determined in the manner described below. […] Following completion of incubation, cell viability (%) was evaluated using a colorimetric method consisting of recovering the cell culture liquid containing the above-mentioned reagent together with measuring absorbance at wavelength of 450 nm based on reduction of tetrazolium salt (value corrected for absorbance at a wavelength of 650 nm: A450 to A650). More specifically, the cell viability (%) of each test cell line was calculated from the measured absorbance as a relative value based on cell viability of 100% for the measured value (measured absorbance) of the comparison test group that underwent incubation for 48 hours as described above in only medium not containing peptide. Antitumor activity was evaluated for Sample 2 in above-mentioned Test Example 1 targeted at multiple types of human-derived cultured tumor cells. […]

Series [2] deals with human kidney cancer cell line (CAKI2). It is filed as cell-based. Particulars: for Cell Viability (%): human, 48 h. How it is done: The antitumor activity of each sample peptide synthesized in above-mentioned Test Example 1 was evaluated targeted in human-derived cultured tumor cells. More specifically, a human kidney cancer cell line (CAKI2) that is currently commercially available was used for the test tumor cells. CAKI2 cells were cultured and adjusted to cell count of about 5×10^3 cells per single well of 96-well plate. The amount of medium at this time was made to be 100 μL per well. Next, the 96-well plate was arranged in a CO2 incubator and incubated for about 1 day (21 hours to 24 hours) under conditions of 37° C. and 5% CO2. Subsequently, peptide-containing test media were respectively prepared for each concentration so that the concentration of each sample peptide targeted for evaluation was 12.5 μM and 25 μM followed by supplying to the wells in which the cells targeted for evaluation were cultured (namely, the wells following the above-mentioned incubation) so that the amount of media was 90 μL per well. The 96-well plate was then returned to CO2 incubator followed by incubating for 48 hours under conditions of 37° C. and 5% CO2. The number of wells (n) at each concentration in each peptide addition test group was set to 3. Thus, the values of the results indicated in the following table are the average values of the results respectively obtained for 3 test wells. Cell viability (%) was determined in the manner described below. Following completion of incubation for 48 hours as described above, the medium in each well was replaced with 100 μL of fresh medium not containing peptide followed by further adding a reagent for measuring cell proliferation in the form of “Cell Counting Kit-8” (Dojindo Laboratories) containing “water-soluble tetrazolium salt (WST-8)” as a coloring reagent at 10 μL per well. Subsequently, the 96-well plate was again returned to CO2 incubator and incubated for 1.5 hours to 2 hours under conditions of 37° C. and 5% CO2. Following completion of incubation, cell viability (%) was evaluated using a colorimetric method consisting of recovering the cell culture liquid containing the above-mentioned reagent together with measuring absorbance at wavelength of 450 nm based on reduction of tetrazolium salt (value corrected for absorbance at a wavelength of 650 nm: A450 to A650). More specifically, the cell viability (%) of each test cell line was calculated from the measured absorbance as a relative value based on cell viability of 100% for the measured value (measured absorbance) of the comparison test group that underwent incubation for 48 hours as described above in only medium not containing peptide. McCoy's 5A medium (Gibco) containing 2 mM L-glutamine, 3,000 mg/L of glucose, 100 units/mL of penicillin, 100 μg/mL of streptomycin and 10% fetal bovine serum (FBS).

As to “FIGNLALSDLLAGVAYTANLLLKKRTLRKNDRKKR-NH2 [Sample 2]”, the “Cell Viability (%)” value in series [1] (12.5 μM) is on record as 6.5%; in series [1] (25 μM) it was 0.2%; in series [2] (12.5 μM), 9.2%; in series [2] (25 μM), 0.4%. Besides, the “antitumor activity (tumor cell proliferation inhibitory activity)” value in series [2] (CAKI2 cells, result in words, among Samples 1 to 7) was “superior antitumor activity”.
